{"source": "patent US11324746B2", "about": "“Use of anagrelide for treating cancer” (Arovella Therapeutics Limited, priority 2014, dated 2022)", "key": {"[1]": {"tested_on": "PDE III", "conditions": "cited from earlier work; for IC50 inhibition of PDE III / IC50: in vitro; for IC50: read-out: IC50 inhibition of PDE III"}, "[2]": {"conditions": "cited from earlier work; for peak plasma levels: after a typical 1 mg clinical dose"}, "[3]": {"tested_on": "PF4", "conditions": "ET patients; HU 1.25 g/day, IFN-α 1.5×10^6 units/day, anagrelide 1.5 mg/day; cited from earlier work"}, "[4]": {"tested_on": "VEGF", "conditions": "ET patients; HU 1.25 g/day, IFN-α 1.5×10^6 units/day, anagrelide 1.5 mg/day; cited from earlier work"}, "[5]": {"experiment": "Aqueous solubility of anagrelide", "format": "physicochemical"}, "[6]": {"conditions": "up to concentration of 1 μM; cited from earlier work"}, "[7]": {"tested_on": "cancer cells", "conditions": "mice; cited from earlier work"}, "[8]": {"tested_on": "megakaryocytes (MKs) from human umbilical cord blood-derived CD34+ haematopoietic cells", "experiment": "Co-culture of COV362 cells and developing megakaryocytes (MK expansion, CD61 flow cytometry)", "format": "cell-based", "conditions": "anagrelide 1 μM", "experimental": "Cells and drug treatment—Megakaryocytes (MKs) were generated ex-vivo essentially as previously described (Ahluwalia M et al 2010). In brief, to promote terminal megakaryocytic differentiation pre-expanded human umbilical cord blood-derived CD34^+ haematopoietic cells were cultured for 7 days in Stemspan™ SFEM II medium (Stem Cell Technologies) supplemented with 1% human umbilical cord blood plasma and 40 ng/ml thrombopoietin (TPO) unless otherwise indicated (MK medium). […]\nThe human ovarian cancer cell line COV362 was grown in Iscove's modified Dulbecco's medium (IMDM) supplemented with 2 mM glutamine and 10% foetal bovine serum (FBS). Cell cultures were maintained at 37° C. in a humidified incubator under 5% CO2/95% air.\nCo-culture experiments—Co-culture of COV362 cells (COVs) and developing MKs was carried out in a modified Boyden Chamber (BD Falcon, BD Biosciences, Oxford, UK) consisting of a cup-shaped cell culture insert resting inside the well of a 24-well companion plate, with the bottom of the insert made of a permeable microporous polyethylene terephthalate (PET) membrane having a pore size of 0.4 μm.\nIn experiments examining the effects of COVs on MK development, COVs were seeded in the companion plate at various cells densities and grown for 4 days prior to mounting the inserts. Then, the medium in the companion plate was removed and replaced with fresh MK medium. Immediately thereafter the pre-expanded haematopoietic cells were seeded in the insert. After seven days of co-culture the cells growing in the inserts were harvested for analysis of MK development.\nAnalysis of megakaryocyte development—Cell density was determined using a Casy TT Cell counter (Innovatis, Germany) set with a lower cut-off limit of ˜7.5 μm. MK-specific antigen expression was monitored by flow cytometry using a fluorescein isothiocyanate-conjugated anti-CD61 antibody (clone Y2/51, Dako, Ely, UK) as previously described (Wang G et al 2005). The number of MKs was calculated by multiplying the total number of cells in the culture by the fraction of CD61 positive cells."}, "[9]": {"conditions": "cited from earlier work"}, "[10]": {"conditions": "cited from earlier work", "remark": "listed apart in the source"}, "[11]": {"tested_on": "megakaryocytes", "conditions": "cited from earlier work"}, "[12]": {"tested_on": "various cancer cell lines", "conditions": "in vitro; WO2014/183673; read-out: IC50 apoptosis in cancer cell lines; cited from earlier work"}, "[13]": {"tested_on": "COV362 cells", "experiment": "Transmigration assay of COV362 cells towards MK cultures (modified Boyden chamber)", "format": "cell-based, human", "experimental": "Transmigration assay—Transmigration of human ovarian cancer cells, COV362 cells (COVs), was examined in a well established model of cancer cell migration (Hart et al 2005) and Kramer et al 2013) which employed the modified Boyden chamber described above but using inserts with a larger 8μm pore PET membrane. […] In this case pre-expanded haematopoietic cells were grown for 7 days in MK medium in the wells of the companion plate prior to placement of the inserts. Inserts were then positioned inside these MK-containing wells or in parallel wells filled with and equivalent volume of MK medium alone. A suspension of 0.35 mL COVs cells made in plasma-free MK medium at a density of 2.86×10^5cells/ml was then loaded onto the inserts and allowed to trans-migrate through the PET membrane for up to 24 h at 37° C. in a tissue culture incubator. At various time points the transmigration assay was terminated by removing the insert from the well of the companion plate and aspirating its contents. After washing the inserts with phosphate-buffered saline (PBS) non-migrating cells attached to the upper side of the PET membrane were scraped off with cotton swabs soaked in PBS. […] Bright field digital photomicrographs were taken in five random fields at 100× magnification and the average number of cells per field was determined by manual counting."}, "[14]": {"conditions": "cited from earlier work", "remark": "listed apart in the source"}, "[15]": {"conditions": "cited from earlier work", "remark": "listed apart in the source"}, "[16]": {"tested_on": "ovarian cancer", "conditions": "mouse models of ovarian cancer; cited from earlier work"}, "[17]": {"conditions": "human, in vivo; cited from earlier work"}}, "note": "Several values for one entry are separate records, joined by “and”; a condition that tells them apart may be missing. Equal entries are not always repeated. Where two headings read alike, the source gives them in different places.", "data": [{"compound": "O=C1NC2=Nc3ccc(Cl)c(Cl)c3CN2C1O", "note": "(stereo not drawn) [3-hydroxy anagrelide]", "values": [{"measurement": "PDEIII inhibitory potency relative to anagrelide", "setting": "[1]; Wang et al, 2005", "value": "~40", "unit": "fold"}, {"measurement": "cardiostimulant potency relative to the parent drug", "setting": "[1]", "value": 40, "unit": "fold"}, {"measurement": "IC50 inhibition of PDE III", "setting": "[1]", "value": 0.2, "unit": "ng/mL"}, {"measurement": "IC50", "setting": "[1]", "value": 0.7, "unit": "nM"}, {"measurement": "peak plasma levels", "setting": "[2]; listed as metabolite", "value": "29 nM and ~8 ng/mL"}, {"measurement": "plasma concentrations of metabolite relative to parent drug", "setting": "[2]; clinical practice, Martinez-Selles et al, 2013", "value": "2-3 fold"}]}, {"compound": "NC(=O)NO", "note": "[HU, hydroxyurea]", "values": [{"measurement": "PF4 levels after treatment", "setting": "[3]", "value": "Neither HU nor IFα brought PF4 and VEGF down"}, {"measurement": "VEGF levels after treatment", "setting": "[4]", "value": "Neither HU nor IFα brought PF4 and VEGF down"}]}, {"compound": "O=C1CN2Cc3c(ccc(Cl)c3Cl)N=C2N1", "note": "[anagrelide]", "values": [{"measurement": "FDA Biopharmaceutics Classification System class", "setting": "[5]", "value": "low solubility/high permeability"}, {"measurement": "apoptopic effects", "setting": "[6]", "value": "no apoptopic effects"}, {"measurement": "circulation time of cancer cells", "setting": "[7]", "value": "increase in circulation time of cancer cells"}, {"measurement": "PF4 levels after treatment", "setting": "[3]", "value": "reduced the PF4 and VEGF levels to normal"}, {"measurement": "inhibition at 1 µM", "setting": "[8]; Homo sapiens, 168 h, absence of COVs, 7 days, read-out: inhibition of thrombopoietin driven MK expansion", "value": "~50", "unit": "%"}, {"measurement": "stimulatory effects of COVs on MK expansion", "setting": "[8]; COVs seeded at 1000cells/mL", "value": "completely abolished"}, {"measurement": "expected increase in MK expansion with COVs", "setting": "[8]; COVs seeded at 3000cells/mL", "value": "more than halved"}, {"measurement": "aqueous solubility", "setting": "[9]; between pH 4-8", "value": "~1.0", "unit": "µg/mL"}, {"measurement": "aqueous solubility", "setting": "[9]; pH1", "value": 236, "unit": "µg/mL"}, {"measurement": "water solubility", "setting": "[9]; pH7", "value": "~1.0", "unit": "µg/mL"}, {"measurement": "water solubility", "setting": "[9]; pH of ~3", "value": 250, "unit": "µg/mL"}, {"measurement": "oral bioavailability", "setting": "[10]", "value": "less than 50%"}, {"measurement": "in vitro anti-megakaryocytic IC50", "setting": "[11]", "value": 7, "unit": "ng/mL"}, {"measurement": "IC50", "setting": "[11]; read-out: in vitro anti-megakaryocytic IC50", "value": 26, "unit": "nM"}, {"measurement": "IC50", "setting": "[12]", "value": 100, "unit": "nM"}, {"measurement": "VEGF levels after treatment", "setting": "[4]", "value": "reduced the PF4 and VEGF levels to normal"}, {"measurement": "IC50 inhibition of PDE III", "setting": "[1]", "value": 8.2, "unit": "ng/mL"}, {"measurement": "IC50", "setting": "[1]", "value": 32, "unit": "nM"}, {"measurement": "attractant properties for COVs of MK cultures grown with drug", "setting": "[13]; anagrelide 1 μM, overnight incubation (FIG. 3)", "value": "no attractant properties"}, {"measurement": "attractant properties for COVs of MKs grown with drug", "setting": "[13]; clinically relevant concentrations, 16 h (FIG. 4)", "value": "loss of attractant properties"}, {"measurement": "peak plasma levels", "setting": "[2]", "value": "16 nM and ~4 ng/mL"}, {"measurement": "patients discontinuing drug treatment due to cardiovascular side-effects", "setting": "[14]; Birgegard et al, 2004", "value": "~25", "unit": "%"}, {"measurement": "patients with idiopathic cardiomyopathy", "setting": "[14]; of 434 patients with essential thrombocythaemia and polycythemia vera, Jurgens et al 2004", "value": 11}]}, {"compound": "Cc1ncc2n1-c1ccc(Cl)cc1C(c1ccccc1F)=NC2", "note": "[midazolam]", "values": [{"measurement": "bioavailablity", "setting": "[15]; given orally", "value": "~30", "unit": "%"}, {"measurement": "bioavailablity", "setting": "[15]; intranasal spray", "value": 87, "unit": "%"}]}, {"compound": "siltuximab: IL-6 antibody", "values": [{"measurement": "platelet count", "setting": "[16]", "value": "significantly reduced"}, {"measurement": "tumour growth", "setting": "[16]", "value": "significantly reduced"}, {"measurement": "upper respiratory infections, share of patients", "setting": "[17]", "value": "> 20", "unit": "%"}]}]}
